BindingDB's records for doi:10.3109/14756360903179435 (Jamia Hamdard, 2010)

Tests used:
[1] = target: T1, Prostaglandin G/H synthase 2 (Ovis aries, UniProt P79208); test: In Vitro Cyclo-Oxygenase Inhibition Assay
T1 sequence (P79208 whole entry): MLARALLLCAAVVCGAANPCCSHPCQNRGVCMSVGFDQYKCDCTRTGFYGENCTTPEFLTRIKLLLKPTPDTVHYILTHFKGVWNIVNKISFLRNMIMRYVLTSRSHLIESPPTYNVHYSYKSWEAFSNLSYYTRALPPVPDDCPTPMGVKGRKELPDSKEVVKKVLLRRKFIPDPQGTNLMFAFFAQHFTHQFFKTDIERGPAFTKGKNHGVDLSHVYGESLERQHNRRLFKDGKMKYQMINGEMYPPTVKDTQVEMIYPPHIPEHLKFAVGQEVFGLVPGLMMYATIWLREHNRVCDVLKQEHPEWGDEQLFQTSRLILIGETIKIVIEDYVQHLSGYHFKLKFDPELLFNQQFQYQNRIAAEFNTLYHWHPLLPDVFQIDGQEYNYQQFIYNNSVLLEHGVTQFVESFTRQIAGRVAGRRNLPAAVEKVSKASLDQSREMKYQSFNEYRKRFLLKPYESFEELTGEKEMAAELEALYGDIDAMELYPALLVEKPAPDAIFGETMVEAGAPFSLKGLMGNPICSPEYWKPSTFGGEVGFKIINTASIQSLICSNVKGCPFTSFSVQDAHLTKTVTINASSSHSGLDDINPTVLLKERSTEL
Procedure: (§1) Inhibition of the enzymes was determined using an enzyme immunoassay (EIA) kit (catalog no. 560101, Cayman Chemical, Ann Arbor, MI, USA) according to the methodology described by Jashim Uddin et al. [Jashim Uddin et al., Bioorg. Med. Chem., 12:5929-40].

[2] = target: T2, Prostaglandin G/H synthase 1 (Ovis aries, UniProt P05979); test: In Vitro Cyclo-Oxygenase Inhibition Assay
T2 sequence (P05979 whole entry): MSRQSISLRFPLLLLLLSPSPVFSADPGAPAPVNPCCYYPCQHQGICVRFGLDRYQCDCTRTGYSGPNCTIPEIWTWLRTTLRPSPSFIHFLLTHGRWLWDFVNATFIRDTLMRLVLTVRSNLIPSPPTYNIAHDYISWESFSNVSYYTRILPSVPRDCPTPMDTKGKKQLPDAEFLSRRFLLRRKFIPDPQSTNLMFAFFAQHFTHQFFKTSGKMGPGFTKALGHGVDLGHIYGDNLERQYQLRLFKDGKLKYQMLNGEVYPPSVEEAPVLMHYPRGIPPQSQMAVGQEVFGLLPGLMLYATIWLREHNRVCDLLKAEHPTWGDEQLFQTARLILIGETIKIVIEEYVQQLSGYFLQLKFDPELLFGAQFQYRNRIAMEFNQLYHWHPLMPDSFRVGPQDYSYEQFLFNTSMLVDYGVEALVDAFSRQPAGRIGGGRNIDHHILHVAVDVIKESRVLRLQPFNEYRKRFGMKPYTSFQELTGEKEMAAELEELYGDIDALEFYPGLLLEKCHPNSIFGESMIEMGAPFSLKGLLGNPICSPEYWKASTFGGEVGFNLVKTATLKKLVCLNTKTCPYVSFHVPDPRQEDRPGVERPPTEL
Procedure: as §1

In the case of `CC(C)Cc1ccc(C2=C/C(=C\c3ccc(Cl)cc3Cl)C(=O)O2)cc1` [3-(2,4-Dichlorobenzylidene)-5-(4-isobutylphenyl)-2(3H)-furanone (14)], the IC50 [1] is reported as 2.2 µM and the IC50 [2] is reported as 48.2 µM.
Work on `CC(C)Cc1ccc(C2=C/C(=C\c3c(Cl)cccc3Cl)C(=O)O2)cc1` [3-(2,6-Dichlorobenzylidene)-5-(4-isobutylphenyl)-2(3H)-furanone (13)] yielded an IC50 [1] of 1.8 µM and an IC50 [2] of 47.6 µM.
In the case of `CC(C)Cc1ccc(C2=C/C(=C\c3ccccc3Cl)C(=O)O2)cc1` [3-(2-Chlorobenzylidene)-5-(4-isobutylphenyl)-2(3H)-furanone (3)], the IC50 [1] is reported as 2.4 µM and the IC50 [2] is reported as 52.4 µM.
In the case of `CC(C)Cc1ccc(C2=C/C(=C\c3ccc(F)cc3)C(=O)O2)cc1` [3-(4-Fluorobenzylidene)-5-(4-isobutylphenyl)-2(3H)-furanone (9)], the IC50 [1] is reported as 3.8 µM and the IC50 [2] is reported as 68.3 µM.
